Data set [1] deals with intracellular Aβ1-40 and Aβ1-42 in N2a-SwedAPP cells. The data set can be described thus: Sandwich ELISA of intracellular Aβ in N2a-SwedAPP cells. On the set-up: key to Aβs (overall influence): ↓ decreased; ↑ increased; ? unchanged. Format: cell-based, murine. For orientation: ELISA stands for enzyme-linked immunosorbent assay.
Procedure: N2a-SwedAPP cells were seeded at a density of 4×10^5/mL in DMEM medium in a 6-well plate and cultured for 1 day. After transfer, cells were treated with different doses of RC, CP, FG and RS for 48 hours, then the extracellular media were collected for detection of sAPPα and sAPPβ-sw, and cells were harvested to quantify F1-APP and β-actin by Western blot analysis, as described previously by Durairajan et al. For intracellular APP, APP-CTFs and Aβ preparation, cells were washed with ice-cold PBS twice and solubilized in ice-cold RIPA buffer with protease inhibitor cocktail added. Lysates were collected and centrifuged at 16,000×g for 15 minutes at 4° C. The resulting supernatants were collected, and their protein concentrations were determined with bicinchoninic acid (BCA) protein assay reagent (Thermo Scientific, IL, USA). […] The conditioned media were standardized to total cell lysate protein.
The levels of intracellular Aβ1-40 and Aβ1-42 are quantified by using a sandwich ELISA as previously described by Durairajan et al., 2011 with minor modification. Equal amounts of cell or brain lysates are used for Aβ quantification by sandwich ELISA. The monoclonal antibody 6E10 is used as the capture antibody by adding to ELISA plates (0.2 μg diluted in 0.1 M Na2CO3 (pH 9.6) per well) and incubated overnight at 4° C. The plates are washed with PBS (0.05% Tween 20) and blocked with 4% BlockAce (Serotec, Raleigh, N.C., USA) for 2 hours at room temperature. Equilibrated protein lysates from each treatment (a 100 μL volume is adjusted in all treatment groups by using PBS) are applied in duplicate and incubated at room temperature for 2 hours with constant rotation at 30 rpm. Biotinylated monoclonal anti-Aβ40 5C3 (50 ng per well) and biotinylated monoclonal 8G7 (50 ng per well) antibodies are used for detection of Aβ1-40 and Aβ1-42, respectively, and are diluted in 1% BlockAce and incubated for 2 hours at room temperature. Plates are thoroughly washed with PBS (0.05% Tween 20), and streptavidin conjugated HRP is added for 1 hour at room temperature. Finally the plates are washed four times with PBST before adding the substrate TMB for 30 minutes. Absorbance at 450 nm is measured in duplicate wells after addition of 2 M H2SO4. All ELISA experimental data are from three different days. Synthetic Aβ40 and Aβ42 peptides are used for construction of calibration curves, and Aβ is measured in lysates.
The test system of data set [2] is Aβ1-40 and Aβ1-42 in brain of TgCRND8 mice. The data set can be described thus: Aβ ELISA of serially extracted brain fractions of TgCRND8 mice. Format: in vivo. As to conditions: oral, 25 mg/kg per day. An excerpt:
(§1) All animal handling experiments were approved by the Hong Kong Baptist University Committee on the Use of Human and Animal Subjects in Teaching and Research (HASC, approval #: 12-13/0030). TgCRND8 mice expressing human APP with Swedish (K670N/M671L) and Indiana (V717F) mutations were used to evaluate the effect of baicalein on Aβ. Heterozygous TgCRND8 mice on a C57BL/6J background were used to breed a colony of experimental animals. The TgCRND8 mouse is an early onset model of AD with visible Aβ deposits in the brains of the animals starting from 3 months of age as described in Chishti M A, Yang D S, Janus C, Phinney A L, Home P, Pearson J, Strome R, Zuker N, Loukides J, French J, Turner S, Lozza G, Grilli M, Kunicki S, Morissette C, Paquette J, Gervais F, Bergeron C, Fraser P E, Carlson G A, George-Hyslop P S, Westaway D. (2001) Early-onset amyloid deposition and cognitive deficits in transgenic mice expressing a double mutant form of amyloid precursor protein 695. J Biol Chem 276: 21562-21570. The animals are housed in a controlled environment under a 12/12 hours light/dark cycle. They are allowed free access to food and water. The oral administration of baicalein (25 mg/kg/d) is commenced at 2 months of age and ended at 5 months before being killed. A single dose (25 mg/kg/d) of baicalein is tested in animal study as no difference in baicalein levels in the brain between doses of 25 and 50 mg/kg/d is found in our pilot study. Control mice orally gavaged with tap water only for the same administration period. At the conclusion of the treatment period, mice were deeply anesthetized by chloral hydrate and perfused with phosphate buffered saline (PBS). The brains were then dissected and processed for Aβ immunostaining
(§2) To detect differences in the level of APP metabolic products among treatment groups, the levels of Aβ, F1-APP, pAPPThr668, CTFs, sAPPα and sAPPβ-sw are measured after a 3-step sequential extraction using Tris buffered saline (TBS) (pH 7.4), 1% Triton X-100/TBS (TBSX) and formic acid (FA) methods as described in Youmans K L, Leung S, Zhang J, Maus E, Baysac K, Bu G, Vassar R, Yu C, LaDu M J. (2011) Amyloid-β42 alters apolipoprotein E solubility in brains of mice with five familial AD mutations. J Neurosci Methods 196: 51-59. All extraction buffers also contained protease and phosphatase inhibitor cocktail (Roche Diagnostics, Basel, Switzerland). Snap frozen tissue is homogenized in 15 volumes (w/v) of TBS homogenization buffer and centrifuged at 100,000×g for 1 h at 4° C. using a Type 70 Ti rotor in an Optima™ L-80XP Ultracentrifuge (Beckman Coulter, Fla., USA). The TBS-soluble fraction is aliquoted, frozen in liquid nitrogen and stored at −80° C. The pellets are resuspended in 15 volumes of TBSX and kept on ice for 30 minutes, followed by a second centrifugation at 100,000×g for 1 hour at 4° C. The TBSX soluble fraction is aliquoted, frozen and stored as for the TBS fraction. The TBSX-insoluble pellet is resuspended in 2 mL of 70% FA and centrifuged at 100,000×g at 4° C. for 1 hour. The FA extracts are neutralized by the addition of 20 volumes of 1 M Tris pH 11, aliquoted and stored at −80° C. Total protein content in TBS- and TBSX-extracts is determined via BCA assay. […]
The levels of intracellular Aβ1-40 and Aβ1-42 are quantified by using a sandwich ELISA as previously described by Durairajan et al., 2011 with minor modification. Equal amounts of cell or brain lysates are used for Aβ quantification by sandwich ELISA. […]

In data set [3] the test system is APP processing (sAPPs, F1-APP, pAPPThr668, CTFs) in brain of TgCRND8 mice. As to the kind of experiment: Western blot of APP metabolic products in brain fractions of TgCRND8 mice. Type of data set: in vivo. As to conditions: oral, 25 mg/kg per day.
Source text: as §1
as §2, with “assay. Total protein in FA-extracts is determined by Bradford Protein Microassay (Bio-Rad, CA, USA).” for “assay.”
(In western blotting, separated proteins are transferred to a membrane and probed.)

A short description of data set [4]: Baicalein concentration in brain of TgCRND8 mice. Type of data set: in vivo.

On to `O=c1cc(-c2ccccc2)oc2cc(O)c(O)c(O)c12` [baicalein], for which, in data set [1] (12.5 μM, 48 h), the “augmentation of intracellular Aβ1-40, fold of basal level” value worked out at 1.23 fold and the “augmentation of intracellular Aβ1-42, fold of basal level” value is 1.38 fold. Moreover, the “Aβs (overall influence)” value in data set [1] (N2a-SwedAPP cells) is reported as “↑”. Besides, in data set [2] (TBS fraction), the “effect on TBS soluble Aβ levels in brain” value is “did not significantly affect”. Also, in data set [2] (TBSX fraction), the “increase of Aβ1-40 in TBSX-soluble brain fraction” value came out at 35% and the “increase of Aβ1-42 in TBSX-soluble brain fraction” value is on record as 65%. In data set [2] (formic acid fraction), the “increase of Aβ1-40 in FA brain fraction” value was found to be 80% and the “increase of Aβ1-42 in FA brain fraction” value turned out to be 32%. In data set [3] (TBS fraction), the “increase in sAPPα signal intensity in brain” value amounted to 44% and the “increase in sAPPβ-sw signal intensity in brain” value is recorded as 35%. Moreover, in data set [3] (TBSX fraction), the “increase in level of CTFs in brain” value was found to be 40%, the “increase in level of F1-APP in brain” value came out at 30% and the “increase in level of pAPP in brain” value is 41%. In data set [4] (TgCRND8 mice, orally administered 25 mg/kg), the “mean concentration of baicalein in the brain” value came out at 120 ± 10 ng/mL. In data set [4] (mouse, in vivo), the “difference in baicalein levels in the brain between doses” value is listed as “no difference”.
